Results from patent EP0171362A1, “Aminoalkyl penem compounds” (priority 1984, dated 1986).
Values after ≈ are worked out from the molar mass of the structure shown.

How the values were obtained:
Assay type in all cases: cell-based
[1] = tested on: Enterobacter cloacae P 99; assay: In vitro antibiotic activity (MIC); details: P99, read-out: in vitro MIC
[2] = tested on: Escherichia coli 205 R + TEM; assay: In vitro antibiotic activity (MIC); details: read-out: in vitro MIC
[3] = tested on: Pseudomonas aeruginosa ATCC 12055; assay: In vitro antibiotic activity (MIC); details: ATCC12055
[4] = tested on: Klebsiella pneumoniae 327; assay: In vitro antibiotic activity (MIC)
Escherichia coli DC 2 = assay: In vitro antibiotic activity (MIC); details: DC2
[5] = tested on: Streptococcus pneumoniae III/84; assay: In vitro antibiotic activity (MIC)
[6] = tested on: Streptococcus pyogenes Aronson 1129; assay: In vitro antibiotic activity (MIC); details: ARONSON1129
Serratia marcescens 344 = assay: In vitro antibiotic activity (MIC)
[7] = tested on: Staphylococcus aureus 10 B; assay: In vitro antibiotic activity (MIC)
[8] = tested on: Clostridium perfringens 194 AN; assay: microbe, parasite or virus in culture; details: read-out: in vitro MIC
[9] = tested on: Staphylococcus aureus 2999i+p+; assay: In vitro antibiotic activity (MIC)
[10] = tested on: Bacteroides fragilis L 01; assay: In vitro antibiotic activity (MIC); details: L01
[11] = tested on: Pseudomonas aeruginosa K 799/61; assay: In vitro antibiotic activity (MIC); details: K799/61, read-out: in vitro MIC
[12] = tested on: Enterobacter cloacae ATCC 13074; assay: In vitro antibiotic activity (MIC); details: ATCC13074
Escherichia coli 205 = assay: In vitro antibiotic activity (MIC)
Proteus morganii 2359 = assay: In vitro antibiotic activity (MIC); details: Morganella morganii
Proteus mirabilis 774 = assay: In vitro antibiotic activity (MIC)
Escherichia coli UB 1005 = assay: In vitro antibiotic activity (MIC); details: UB1005
From the text: Ueberraschenderweise weisen die erfindungsgemässen Penem-Verbindungen gegenüber strukturverwandten und vorbekannten Penemen eine überlegene Wirksamkeit auf. Dies wird deutlich beim Vergleich der MIC-Daten (minimum inhibitory concentrations, in vitro gemessen) von (5R,6S)-2-[(2R,S)-2-Amino-but-1-yl)-6-[(lR)-1-hydroxyäthyl]-2-penem-3-carbonsäure (Verbindung A) mit bekannten homologen Penemen, die in Position 2 des Penem-Ringes einen 4-Aminobutyl- bzw. 1-Aminobutyl-Substituenten tragen, nämlich (5R,6S)-2-(4-Aminobutyl)-6-hydroxymethyl-2-penem-3-carbonsäure (Europäische Patentanmeldung Nr. 82113, Verbindung B) und (5R,6S)-2-(1-Aminobutyl)-6-hydroxymethyl-2-penem-3-carbonsäure (Europäische Patentanmeldung Nr. 125 208, Verbindung C). Die Ergebnisse sind in der folgenden Tabelle 1 zusammengefasst.

Escherichia coli 16 = assay: In vitro antibiotic activity (MIC)
[13] = tested on: Pseudomonas aeruginosa 143738R; assay: In vitro antibiotic activity (MIC)
[14] = tested on: Staphylococcus aureus A 124; assay: In vitro antibiotic activity (MIC); details: A124
Escherichia coli B-1385 = assay: In vitro antibiotic activity (MIC); details: B1385
[15] = tested on: Neisseria gonorrhoeae 1317/4; assay: In vitro antibiotic activity (MIC)
[16] = tested on: Neisseria meningitidis 1316; assay: In vitro antibiotic activity (MIC)
[17] = tested on: Haemophilus influenzae 24; assay: In vitro antibiotic activity (MIC)
[18] = tested on: Staphylococcus aureus Wood 46; assay: In vitro antibiotic activity (MIC); details: WOOD46
Escherichia coli 2018 = assay: In vitro antibiotic activity (MIC)

Structure (SMILES)	MIC [1] [µg/mL]	MIC [2] [µg/mL]	MIC [3] [µg/mL]	MIC [4] [µg/mL]	MIC (Escherichia coli DC 2) [µg/mL]	MIC [5] [µg/mL]	MIC [6] [µg/mL]	MIC (Serratia marcescens 344) [µg/mL]	MIC [7] [µg/mL]	MIC [8] [µg/mL]	MIC [9] [µg/mL]	MIC [10] [µg/mL]	MIC [11] [µg/mL]	MIC [12] [µg/mL]	MIC (Escherichia coli 205) [µg/mL]	MIC (Proteus morganii 2359) [µg/mL]	MIC (Proteus mirabilis 774) [µg/mL]	MIC (Escherichia coli UB 1005) [µg/mL]	MIC (Escherichia coli 16) [µg/mL]	MIC [13] [µg/mL]	further results
NCCCCC1=C(C(=O)O)N2C(=O)[C@H](CO)[C@H]2S1 [Verbindung B, (5R,6S)-2-(4-Aminobutyl)-6-hydroxymethyl-2-penem-3-carbonsäure]	4 (≈ 14.7 µM)	8 (≈ 29.4 µM)	8 (≈ 29.4 µM)	4 (≈ 14.7 µM)	8 (≈ 29.4 µM)	0.5 (≈ 1.84 µM)	0.5 (≈ 1.84 µM)	16 (≈ 58.8 µM)	0.5 (≈ 1.84 µM)	4 (≈ 14.7 µM)	0.5 (≈ 1.84 µM)	0.5 (≈ 1.84 µM)	4 (≈ 14.7 µM)	16 (≈ 58.8 µM)	4 (≈ 14.7 µM)	16 (≈ 58.8 µM)	16 (≈ 58.8 µM)	4 (≈ 14.7 µM)	4 (≈ 14.7 µM)	–	–
CCC(N)CC1=C(C(=O)O)N2C(=O)[C@H]([C@@H](C)O)[C@H]2S1 (stereo partly drawn) [Verbindung A, (5R,6S)-2-[(2R,S)-2-Amino-but-1-yl)-6-[(lR)-1-hydroxyäthyl]-2-penem-3-carbonsäure]	0.5 (≈ 1.75 µM)	2 (≈ 6.98 µM)	32 (≈ 112 µM)	1 (≈ 3.49 µM)	16 (≈ 55.9 µM)	0.05 (≈ 0.175 µM)	0.05 (≈ 0.175 µM)	8 (≈ 27.9 µM)	0.02 (≈ 0.0698 µM)	0.2 (≈ 0.698 µM)	0.05 (≈ 0.175 µM)	0.5 (≈ 1.75 µM)	4 (≈ 14 µM)	2 (≈ 6.98 µM)	1 (≈ 3.49 µM)	8 (≈ 27.9 µM)	2 (≈ 6.98 µM)	2 (≈ 6.98 µM)	1 (≈ 3.49 µM)	64 (≈ 224 µM)	MIC [14]: 0.1 µg/mL (≈ 0.349 µM); MIC (Escherichia coli B-1385): 1 µg/mL (≈ 3.49 µM); MIC [15]: 0.5 µg/mL (≈ 1.75 µM); MIC [16]: 1 µg/mL (≈ 3.49 µM); MIC [17]: 16 µg/mL (≈ 55.9 µM); MIC [18]: 0.02 µg/mL (≈ 0.0698 µM); MIC (Escherichia coli 2018): 0.5 µg/mL (≈ 1.75 µM)
CCCC(N)C1=C(C(=O)O)N2C(=O)[C@H](CO)[C@H]2S1 (stereo partly drawn) [Verbindung C, (5R,6S)-2-(1-Aminobutyl)-6-hydroxymethyl-2-penem-3-carbonsäure]	64 (≈ 235 µM)	64 (≈ 235 µM)	> 64	32 (≈ 118 µM)	64 (≈ 235 µM)	0.05 (≈ 0.184 µM)	1 (≈ 3.67 µM)	> 64	0.05 (≈ 0.184 µM)	64 (≈ 235 µM)	0.05 (≈ 0.184 µM)	16 (≈ 58.8 µM)	64 (≈ 235 µM)	> 64	64 (≈ 235 µM)	> 64	> 64	64 (≈ 235 µM)	64 (≈ 235 µM)	> 64	MIC [14]: 0.5 µg/mL (≈ 1.84 µM); MIC (Escherichia coli B-1385): 64 µg/mL (≈ 235 µM); MIC [15]: 2 µg/mL (≈ 7.34 µM); MIC [16]: 1 µg/mL (≈ 3.67 µM); MIC [17]: 32 µg/mL (≈ 118 µM); MIC [18]: 0.05 µg/mL (≈ 0.184 µM); MIC (Escherichia coli 2018): 32 µg/mL (≈ 118 µM)
